Assay: excess molar enthalpy (molar enthalpy of mixing); xn = mol fraction of the nth substance listed
Details: 313.15 K, 100 kPa

Structure (SMILES): CCC(=O)O + C1CCCCC1
- excess molar enthalpy (x1 = 0.0571): 0.0337 kcal/mol
- excess molar enthalpy (x1 = 0.108): 0.0657 kcal/mol
- excess molar enthalpy (x1 = 0.1537): 0.0913 kcal/mol
- excess molar enthalpy (x1 = 0.195): 0.112 kcal/mol
- excess molar enthalpy (x1 = 0.3264): 0.154 kcal/mol
- excess molar enthalpy (x1 = 0.4209): 0.168 kcal/mol
- excess molar enthalpy (x1 = 0.4921): 0.171 kcal/mol
- excess molar enthalpy (x1 = 0.5924): 0.167 kcal/mol
- excess molar enthalpy (x1 = 0.6856): 0.147 kcal/mol
- excess molar enthalpy (x1 = 0.744): 0.129 kcal/mol
- excess molar enthalpy (x1 = 0.8134): 0.0982 kcal/mol
- excess molar enthalpy (x1 = 0.8971): 0.0507 kcal/mol
- excess molar enthalpy (x1 = 0.9208): 0.0359 kcal/mol
- excess molar enthalpy (x1 = 0.9458): 0.0196 kcal/mol

Structure (SMILES): CCC(=O)O + C1CCOCC1
- excess molar enthalpy (x1 = 0.0528): -0.0263 kcal/mol
- excess molar enthalpy (x1 = 0.1003): -0.0504 kcal/mol
- excess molar enthalpy (x1 = 0.1433): -0.0679 kcal/mol
- excess molar enthalpy (x1 = 0.1823): -0.0813 kcal/mol
- excess molar enthalpy (x1 = 0.3085): -0.112 kcal/mol
- excess molar enthalpy (x1 = 0.4009): -0.121 kcal/mol
- excess molar enthalpy (x1 = 0.6675): -0.101 kcal/mol
- excess molar enthalpy (x1 = 0.8006): -0.0648 kcal/mol
- excess molar enthalpy (x1 = 0.8893): -0.0335 kcal/mol
- excess molar enthalpy (x1 = 0.9146): -0.0229 kcal/mol
- excess molar enthalpy (x1 = 0.9414): -0.0127 kcal/mol
- excess molar enthalpy (x1 = 0.9698): -0.00598 kcal/mol

Structure (SMILES): CCC(=O)O + C1COCCO1
- excess molar enthalpy (x1 = 0.087): -0.0294 kcal/mol
- excess molar enthalpy (x1 = 0.125): -0.0351 kcal/mol
- excess molar enthalpy (x1 = 0.16): -0.039 kcal/mol
- excess molar enthalpy (x1 = 0.2222): -0.0406 kcal/mol
- excess molar enthalpy (x1 = 0.2759): -0.0392 kcal/mol
- excess molar enthalpy (x1 = 0.3636): -0.0318 kcal/mol
- excess molar enthalpy (x1 = 0.4325): -0.0239 kcal/mol
- excess molar enthalpy (x1 = 0.5334): -0.0103 kcal/mol
- excess molar enthalpy (x1 = 0.6957): 0.0131 kcal/mol
- excess molar enthalpy (x1 = 0.7742): 0.0206 kcal/mol
- excess molar enthalpy (x1 = 0.8728): 0.0203 kcal/mol
- excess molar enthalpy (x1 = 0.9014): 0.0174 kcal/mol
- excess molar enthalpy (x1 = 0.9648): 0.00813 kcal/mol

Structure (SMILES): CCC(=O)O + CCCCCCCC
- excess molar enthalpy (x1 = 0.1539): 0.065 kcal/mol
- excess molar enthalpy (x1 = 0.2144): 0.0856 kcal/mol
- excess molar enthalpy (x1 = 0.2668): 0.104 kcal/mol
- excess molar enthalpy (x1 = 0.3531): 0.126 kcal/mol
- excess molar enthalpy (x1 = 0.4212): 0.138 kcal/mol
- excess molar enthalpy (x1 = 0.5219): 0.146 kcal/mol
- excess molar enthalpy (x1 = 0.5928): 0.146 kcal/mol
- excess molar enthalpy (x1 = 0.7661): 0.11 kcal/mol
- excess molar enthalpy (x1 = 0.8137): 0.0932 kcal/mol
- excess molar enthalpy (x1 = 0.8676): 0.0715 kcal/mol
- excess molar enthalpy (x1 = 0.8973): 0.0566 kcal/mol
- excess molar enthalpy (x1 = 0.9291): 0.0406 kcal/mol

Structure (SMILES): CCC(=O)O + Cc1cc(C)cc(C)c1
- excess molar enthalpy (x1 = 0.0444): 0.0055 kcal/mol
- excess molar enthalpy (x1 = 0.0548): 0.00574 kcal/mol
- excess molar enthalpy (x1 = 0.0718): 0.00598 kcal/mol
- excess molar enthalpy (x1 = 0.134): 0.00335 kcal/mol
- excess molar enthalpy (x1 = 0.1884): -0.000239 kcal/mol
- excess molar enthalpy (x1 = 0.2364): -0.00287 kcal/mol
- excess molar enthalpy (x1 = 0.3171): -0.00526 kcal/mol
- excess molar enthalpy (x1 = 0.3824): -0.00717 kcal/mol
- excess molar enthalpy (x1 = 0.4815): -0.00813 kcal/mol
- excess molar enthalpy (x1 = 0.5532): -0.0086 kcal/mol
- excess molar enthalpy (x1 = 0.65): -0.00813 kcal/mol
- excess molar enthalpy (x1 = 0.7359): -0.00645 kcal/mol
- excess molar enthalpy (x1 = 0.7879): -0.00574 kcal/mol
- excess molar enthalpy (x1 = 0.8479): -0.0043 kcal/mol
- excess molar enthalpy (x1 = 0.9176): -0.00287 kcal/mol
- excess molar enthalpy (x1 = 0.9571): -0.00191 kcal/mol

From a compilation of properties of binary mixtures (doi:10.1021/je950194b)
